Results reported in article PMC6022219, “Identification and Characterization of a Novel Palmitoyl Acyltransferase as a Druggable Rheostat of Dynamic Palmitoylome in L. donovani” (Frontiers in Cellular and Infection Microbiology, 2018).

What was measured:
LdPAT4-DHHC [1] = target: T1, LdPAT4-DHHC (Leishmania donovani, UniProt A0A3S7X1Q3); assay: click-chemistry metabolic labelling of E. coli expressing LdPAT4-DHHC, Oregon Green […] fluorometry; format: cell-based; settings: substrate Alk-C16 100 uM, induced E. coli Rosetta cells, 37 C, 6 h; 2-BMP concentration not stated
T1 construct: gene LdCL_280025100; DHHC domain only (423 bp), N-terminal GST tag (pGEX-4T-1, BamHI/SalI), E. coli Rosetta, ~40 kDa with tag
T1 sequence (A0A3S7X1Q3 268-407): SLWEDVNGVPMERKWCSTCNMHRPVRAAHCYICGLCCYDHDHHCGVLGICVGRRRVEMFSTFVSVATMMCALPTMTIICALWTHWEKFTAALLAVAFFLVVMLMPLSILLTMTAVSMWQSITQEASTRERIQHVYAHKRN

LdPAT4-DHHC [2] = target: T1, LdPAT4-DHHC; assay: as above; format: cell-based; settings: 100 uM Alk-C16, induced E. coli Rosetta cells, 37 C, 6 h; labelled compound (alkyne probe)

Row | SMILES | reduction in fluorescence intensity (LdPAT4-DHHC [1]) | click-chemistry metabolic labelling of E. coli expressing LdPAT4-DHHC, Oregon Gr (LdPAT4-DHHC [2])
1 | CCCCCCCCCCCCCCC(Br)C(=O)O (centres unmarked) [2-BMP] | following 2-BMP treatment of induced cells, reduction in fluorescence intensity was detected | 
2 | C#CCCCCCCCCCCCCCC(=O)O [Alk-C16] |  | predominant incorporation of palmitic acid analogs into transformed E. coli
